How the values were obtained:
[1] = DPH reporter dye binding to alpha-helical barrel lumen (fluorescence titration); conditions: DPH 1 μM incubated with alpha-helical barrel 0.5-500 μM for up to 2 hours; fluorescent signal
Protocol: (§1) The dyes 1,6-diphenyl-1,3,5-hexatriene (DPH) and 6-propionyl-2-dimethylaminonaphthalene (prodan) were assayed against a number of alpha-helical barrels to determine their dissociation constants, KD. DPH or prodan (1 μM) was incubated with varying concentrations of alpha-helical barrel (0.5-500 μM) for up to 2 hours, and the fluorescent signal measured at the corresponding emission wavelength.

[2] = DPH displacement from alpha-helical barrel, competitive inhibition assay, analyte retinol; format: binding; conditions: barrel incubated with DPH or TMA-DPH; analyte 0.05-300 μM; fluorescence; read-out: Retinol K1
Protocol: (§2) The four analytes below were selected based on having hydrophobic properties and being able to adopt an elongate configuration, as these were postulated to have the best chance of displacing a reporter dye.
(§3) DPH was used as the reporter dye, and displacement of DPH was recorded using a standard competitive inhibition assay. In other words, the ability of an analyte to inhibit DPH binding was recorded by the inhibition constant Ki. Alpha-helical barrels were incubated with DPH, or its cationic variant 1-(4-trimethylammoniumphenyl)-6-phenyl-1,3,5-hexatriene p-toluenesulfonate (TMA-DPH). Analyte was added (0.05-300 μM) and the fluorescence signal measured.

[3] = DPH displacement from alpha-helical barrel, competitive inhibition assay, analyte farnesol; conditions: barrel incubated with DPH or TMA-DPH; analyte 0.05-300 μM; fluorescence; dash = no competitive binding observed; read-out: Famesol K1
Protocol: as §2, §3

[4] = Prodan reporter dye binding to alpha-helical barrel lumen (fluorescence titration); conditions: for Kd: prodan 1 μM incubated with alpha-helical barrel 0.5-500 μM for up to 2 hours, fluorescent signal, dash = did not bind; for prodan binding to alpha-helical barrel (in words): summary of KD table
Protocol: as §1

[5] = DPH displacement from alpha-helical barrel, competitive inhibition assay, analyte palmitic acid; format: binding; conditions: barrel incubated with DPH or TMA-DPH; analyte 0.05-300 μM; fluorescence; read-out: Palmitic acid K1
Protocol: as §2, §3

[6] = DPH displacement from alpha-helical barrel, competitive inhibition assay, analyte beta-carotene; conditions: barrel incubated with DPH or TMA-DPH; analyte 0.05-300 μM; fluorescence; dash = no competitive binding observed; read-out: B-carotene K1
Protocol: as §2, §3

Row | Kd [1] [µM] | Ki [2] [µM] | Ki [3] [µM] | Kd [4] [µM] | Ki [5] [µM] | Ki [6] [µM] | prodan binding to alpha-helical barrel (in words) [4] | Sequence
1 | 9.5 ± 1.1 | 4.6 ± 1.9 | 8.6 ± 1.3 | 39.2 ± 6.8 | 1.1 ± 0.3 | > 300 |  | GEIAKSLKEIAKSLKEIAWSLKEIAKSLKG [CC-Hex2, 6 helices in barrel]
2 | 8.9 ± 2.2 | 4 ± 0.7 | 0.6 ± 0.2 | 40.5 ± 4 | 0.9 ± 0.3 | 12.1 ± 5.4 |  | GEIAQALREIAKALREIAWALREIAQALRG [CC-Hept, 7 helices in barrel]
3 | 7.1 ± 1.3 | 6.4 ± 3.2 | 23.9 ± 2.4 | > 500 | 1 ± 0.3 | > 300 | did not bind | GELKAIAQELKAIAKELKAIAWELKAIAQG [CC-Hex, 6 helices in barrel]
4 | 22.4 ± 4.3 | 14.8 ± 4.1 | > 300 | > 500 | 1.1 ± 0.5 | > 300 | did not bind | GKIEQILQKIEKILQKIEWILQKIEQILQG [CC-Pent, alpha helix self-assembling into alpha-helical barrel]
